Results: patent publication US20060009478A1, “Methods for the treatment of back pain” (priority 2003, published 2006)
Several values for one entry are separate records, joined by “and”; a condition that tells them apart may be missing. Identical values can stand only once.

Tests used:
IL10 = experiment: Plasma cytokine concentration, Pointilliste Human Th1/Th2 Cytokine Canvas; type: in vivo; settings: OXY = oxycodone QID, BID/QID = combination drug of oxycodone and naltrexone BID/QID
Procedure: (§1) Plasma samples from selected subjects in the clinical study were used to assay for the presence and concentration of selected cytokines.
(§2) Plasma samples were analyzed using a commercial cytokine assay from Pointilliste (www.pointilliste.com) to quantify the concentrations of IL2, IL4, IL5, IL6, IL10, IL13, GM-CSF, interferon and TNFα. Plasma samples were separately analyzed for IL1αand IL1β, which were quantitated using a conventional cytokine assay by Pointilliste. The cytokine assay for the quantitation of IL2, IL4, IL5, IL6, IL10, IL13, GM-CSF, interferon and TNFα employed, Pointilliste's Human Th1/Th2 Cytokine Canvas product which contains binding sites for each of these nine cytokines.
(§3) Two measurements (duplicates) for each cytokine were possible for each plasma sample applied to a canvas, since the canvas has two binding sites for each cytokine.
(§4) Fifty-seven frozen human plasma samples containing EDTA as an anticoagulant were thawed on ice and transferred to a sterile 96-deep well polypropylene plate. The plate was centrifuged briefly at 4° C. to clarify the plasma. Aliquots of clarified plasma were removed for cytokine analysis, and the remaining samples in the 96-deep well polypropylene plate were stored at −80° C.
(§5) The aliquots of clarified plasma were transferred to sterile non-protein binding 96-well polypropylene plates to enable parallel processing of the samples. Two different 96 well plates were used, and each received a subsample of the aliquots at different dilutions. Two dilutions (1 in 1 and 1 in 10) of each sample were assayed on two separate human Th1/Th2 cytokine canvases. In order to quantify the cytokine concentrations, standard curves were generated for each dilution. A mixture of 9 cytokines was run on each of the canvases and used to calculate a standard curve, which was used to determine the amount of each cytokine in the samples. The standard curves were plotted with the signal intensity as a function of the cytokine concentration in ng/ml. A CCD camera was used with Pointilliste's Canvas Analysis Tools software to generate data corresponding to cytokine concentrations.

IL13 = experiment: as above; type: in vivo; settings: OXY = oxycodone QID, BID/QID = combination drug of oxycodone and naltrexone BID/QID
Procedure: as §1, §2, §3, §4, §5

IL2 = experiment: as above; type: in vivo; settings: OXY = oxycodone QID, BID/QID = combination drug of oxycodone and naltrexone BID/QID
Procedure: as §1, §2, §3, §4, §5

IL6 = experiment: as above; type: in vivo; settings: OXY = oxycodone QID, BID/QID = combination drug of oxycodone and naltrexone BID/QID
Procedure: as §1, §2, §3, §4, §5

TNFα = experiment: as above; type: in vivo; settings: OXY = oxycodone QID, BID/QID = combination drug of oxycodone and naltrexone BID/QID
Procedure: as §1, §2, §3, §4, §5

interferon gamma = experiment: as above; type: in vivo; settings: OXY = oxycodone QID, BID/QID = combination drug of oxycodone and naltrexone BID/QID
Procedure: as §1, §2, §3, §4, §5

[1] = tested on: patients with moderate to severe chronic low back pain; experiment: Short Opiate Withdrawal Scale (SOWS), low back pain study; settings: ITT
[2] = individual measurements of plasma samples, listed as OXY
[3] = treatment group mean, random sample of subjects
[4] = all patients, change from baseline to day 1
[5] = all patients, change from baseline to day 2
[6] = all patients, change from baseline to day 3
[7] = all patients, change from baseline to day 4
[8] = all patients, last dose date (baseline)
[9] = all patients, opioid withdrawal monitoring day 1
[10] = all patients, opioid withdrawal monitoring day 2
[11] = all patients, opioid withdrawal monitoring day 3
[12] = all patients, opioid withdrawal monitoring day 4
[13] = patients with <4 weeks of dosing, change from baseline to day 1
[14] = patients with <4 weeks of dosing, change from baseline to day 2
[15] = patients with <4 weeks of dosing, change from baseline to day 3

With COc1ccc2c3c1O[C@H]1C(=O)CC[C@@]4(O)[C@@H](C2)N(C)CC[C@]314 [OXY QID, oxycodone] the IL10 cytokine concentration (IL10; [2]) was 0.07237 ng/mL and 0.2164 ng/mL and 0.2235 ng/mL and 0.2438 ng/mL and 0.2959 ng/mL and 0.3757 ng/mL and 0.9598 ng/mL and 1.236 ng/mL and 1.26 ng/mL and 1.394 ng/mL, the “Mean of IL10 concentrations” value (IL10; [3]) was 0.628 ng/mL and the IL13 cytokine concentration (IL13; [2]) was 2.362 ng/mL and 3.291 ng/mL and 3.392 ng/mL and 0.06466 ng/mL and 0.073 ng/mL and 0.1092 ng/mL and 0.1415 ng/mL and 0.1418 ng/mL and 0.1451 ng/mL and 0.1509 ng/mL and 0.169 ng/mL and 0.2847 ng/mL and 0.3385 ng/mL and 0.37 ng/mL and 0.6256 ng/mL and 0.941 ng/mL and 1.09 ng/mL and 2.079 ng/mL. The “Mean of IL13 concentrations” value (IL13; [3]) was 0.876 ng/mL, the IL2 cytokine concentration (IL2; [2]) was 0.1202 ng/mL and 0.1501 ng/mL and 0.1613 ng/mL and 0.1672 ng/mL and 0.208 ng/mL and 0.2689 ng/mL and 0.3259 ng/mL and 0.4012 ng/mL and 0.4755 ng/mL and 0.5532 ng/mL and 0.7233 ng/mL and 1.583 ng/mL and 1.817 ng/mL and 0.092 ng/mL and the “Mean of IL2 concentrations” value (IL2; [3]) was 0.503 ng/mL. The IL6 cytokine concentration (IL6; [2]) was 0.04453 ng/mL and 0.0579 ng/mL and 0.06949 ng/mL and 0.0733 ng/mL and 0.07724 ng/mL and 0.0774 ng/mL and 0.1107 ng/mL and 0.1115 ng/mL and 0.1391 ng/mL and 0.1469 ng/mL and 0.3354 ng/mL and 0.3599 ng/mL and 0.5957 ng/mL and 0.604 ng/mL, the “Mean of IL6 concentrations” value (IL6; [3]) was 0.2 ng/mL and the TNF cytokine concentration (TNFα; [2]) was 0.05312 ng/mL and 0.05316 ng/mL and 0.05332 ng/mL and 0.06095 ng/mL and 0.1469 ng/mL and 0.2 ng/mL and 0.5152 ng/mL and 0.5153 ng/mL. The “Mean of TNF concentrations” value (TNFα; [3]) was 0.2 ng/mL, the IFN cytokine concentration (interferon gamma; [2]) was 0.07226 ng/mL and 0.07442 ng/mL and 0.2197 ng/mL and 0.2407 ng/mL and the “Mean of IFN concentrations” value (interferon gamma; [3]) was 0.152 ng/mL. For the same compound, the “SOWS change from baseline, MAX” value [1, 4] was 1.9, the “SOWS change from baseline, MEAN(SD)” value [1, 4] was 0.3 (0.47) and the “SOWS change from baseline, MEDIAN” value [1, 4] was 0.2. For the same compound, the “SOWS change from baseline, MIN” value [1, 4] was −0.7, the “SOWS change from baseline, MAX” value [1, 5] was 2.4 and the “SOWS change from baseline, MEAN(SD)” value [1, 5] was 0.3 (0.53). For the same compound, the “SOWS change from baseline, MEDIAN” value [1, 5] was 0.2, the “SOWS change from baseline, MIN” value [1, 5] was −1.1 and the “SOWS change from baseline, MAX” value [1, 6] was 1.7. For the same compound, the “SOWS change from baseline, MEAN(SD)” value [1, 6] was 0.2 (0.48), the “SOWS change from baseline, MEDIAN” value [1, 6] was 0.2 and the “SOWS change from baseline, MIN” value [1, 6] was −1.1. For the same compound, the “SOWS change from baseline, MAX” value [1, 7] was 2.7, the “SOWS change from baseline, MEAN(SD)” value [1, 7] was 0.2 (0.54) and the “SOWS change from baseline, MEDIAN” value [1, 7] was 0.1. For the same compound, the “SOWS change from baseline, MIN” value [1, 7] was −1.1, the “SOWS score, MAX” value [1, 8] was 1.5 and the “SOWS score, MEAN(SD)” value [1, 8] was 0.3 (0.36). For the same compound, the “SOWS score, MEDIAN” value [1, 8] was 0.2, the “SOWS score, MIN” value [1, 8] was 0.0 and the “SOWS score, MAX” value [1, 9] was 2.5. For the same compound, the “SOWS score, MEAN(SD)” value [1, 9] was 0.5 (0.52), the “SOWS score, MEDIAN” value [1, 9] was 0.4 and the “SOWS score, MIN” value [1, 9] was 0.0. The “SOWS score, MAX” value [1, 10] was 2.5, the “SOWS score, MEAN(SD)” value [1, 10] was 0.5 (0.54) and the “SOWS score, MEDIAN” value [1, 10] was 0.4. For the same compound, the “SOWS score, MIN” value [1, 10] was 0.0, the “SOWS score, MAX” value [1, 11] was 2.2 and the “SOWS score, MEAN(SD)” value [1, 11] was 0.5 (0.53). The “SOWS score, MEDIAN” value [1, 11] was 0.4, the “SOWS score, MIN” value [1, 11] was 0.0 and the “SOWS score, MAX” value [1, 12] was 2.7. For the same compound, the “SOWS score, MEAN(SD)” value [1, 12] was 0.4 (0.54), the “SOWS score, MEDIAN” value [1, 12] was 0.3 and the “SOWS score, MIN” value [1, 12] was 0.0. For the same compound, the “SOWS change from baseline, MAX” value [1, 13] was 0.2, the “SOWS change from baseline, MEAN(SD)” value [1, 13] was 0.0 (0.16) and the “SOWS change from baseline, MEDIAN” value [1, 13] was 0.0. The “SOWS change from baseline, MIN” value [1, 13] was −0.2, the “SOWS change from baseline, MAX” value [1, 14] was 1.3 and the “SOWS change from baseline, MEAN(SD)” value [1, 14] was 0.2 (0.66). For the same compound, the “SOWS change from baseline, MEDIAN” value [1, 14] was 0.1, the “SOWS change from baseline, MIN” value [1, 14] was −0.5 and the “SOWS change from baseline, MAX” value [1, 15] was 1.3. The “SOWS change from baseline, MEAN(SD)” value [1, 15] was 0.2 (0.67), the “SOWS change from baseline, MEDIAN” value [1, 15] was 0.0 and the “SOWS change from baseline, MIN” value [1, 15] was −0.5.
